According to US20060079566A1, “PDK-1/Akt signaling inhibitors” (priority 2003, published 2006):
Read-outs that look alike come from different tables or passages of the source.

Legend:
PC-3 cells = assay: Cell viability analysis (MTT) in PC-3 cells; type: cell-based, human; details: Homo sapiens; inducing apoptotic death in PC-3 cells / PC-3 cell viability; read-out: IC50 PC-3
Experimental: Cell Culture PC-3 (p53−/−) human androgen-nonresponsive prostate cancer cells were purchased from the American […] (Manassas, Va.). Cells were cultured in RPMI 1640 medium (Gibco, Grand Island, N.Y.) supplemented with 10% fetal bovine serum (FBS; Gibco) at 37° C. in a humidified incubator containing 5% CO2.
Cell viability analysis The effect of 4-[5-(4-methylphenyl)-3-(trifluoromethyl)-1H-pyrazol-1-yl]benzenesulfonamide and its derivatives on PC-3 cell viability was assessed by using the MTT {[3-(4,5-dimethylthiazol-2-yl)-2,5-diphenyl-2H-tetrazolium bromide]} assay in six replicates. Cells were grown in 10% FBS-supplemented RPMI 1640 medium in 96-well, flat bottomed plates for 24 h, and were exposed to various concentrations of compounds 1-36 dissolved in DMSO (final concentration ≦0.1%) in 1% serum-containing RPMI 1640 medium for different time intervals. Controls received DMSO vehicle at a concentration equal to that in drug-treated cells. The medium was removed, replaced by 200 μl of 0.5 mg/ml of MTT in 10% FBS-containing RPMI-1640 medium, and cells were incubated in the CO2 incubator at 37° C. for 2 h. Supernatants were removed from the wells, and the reduced MTT dye was solubilized in 200 μL/well DMSO. Absorbance at 570 nm was determined on a plate reader.

recombinant PDK-1 = molecular target: T1, recombinant PDK-1 (Homo sapiens, UniProt O15530); assay: PDK-1 kinase activity (Upstate kit, SGK-coupled, cell-free); type: biochemical
T1 construct: purchased Upstate (Lake Placid, N.Y.)
T1 sequence (O15530 1-556): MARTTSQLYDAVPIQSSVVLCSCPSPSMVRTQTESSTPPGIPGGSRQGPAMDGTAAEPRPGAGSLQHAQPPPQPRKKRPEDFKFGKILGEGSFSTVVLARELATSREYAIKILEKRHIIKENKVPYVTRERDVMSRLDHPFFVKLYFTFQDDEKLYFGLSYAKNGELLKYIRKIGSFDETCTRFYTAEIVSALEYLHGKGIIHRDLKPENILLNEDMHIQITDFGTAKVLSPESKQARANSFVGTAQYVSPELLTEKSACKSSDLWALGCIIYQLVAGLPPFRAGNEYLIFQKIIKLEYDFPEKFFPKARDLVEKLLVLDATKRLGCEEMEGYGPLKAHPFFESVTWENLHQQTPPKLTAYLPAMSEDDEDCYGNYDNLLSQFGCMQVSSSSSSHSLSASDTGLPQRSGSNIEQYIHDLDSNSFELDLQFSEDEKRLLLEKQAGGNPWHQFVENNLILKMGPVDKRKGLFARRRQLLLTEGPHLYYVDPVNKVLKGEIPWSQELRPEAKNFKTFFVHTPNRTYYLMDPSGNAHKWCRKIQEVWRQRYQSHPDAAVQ
Experimental: PDK-1 kinase activity This in vitro assay was performed using a PDK-1 kinase assay kit (Upstate, Lake Placid, N.Y.) according to the vendor's instructions. This cell-free assay is based on the ability of recombinant PDK-1, in the presence of DMSO vehicle or the test agent, to activate its downstream kinase serum- and glucocorticoid-regulated kinase (SGK.) which, in turn, phosphorylates the Akt/SGK-specific peptide substrate RPRAATF with [γ-^32]-ATP. […] The reported values represent the means of two independent determinations.

[1] = inhibiting recombinant PDK-1 kinase activity, read-out: IC50 PDK-1

| SMILES | IC50 (PC-3 cells) [µM] | IC50 (recombinant PDK-1; [1]) [µM] | IC50 (recombinant PDK-1) [µM] |
| --- | --- | --- | --- |
| NC(=O)c1ccc(-n2nc(C(F)(F)F)cc2-c2ccc3c(ccc4ccccc43)c2)cc1 [Compound 61, 4-[5-(2-Phenanthracenyl)-3-(trifluoromethyl)-1H-pyrazol-1-yl]-benzenecarboxamide] | 7 | 12 | – |
| [N-]=[N+]=NCCCc1ccc(-c2cc(C(F)(F)F)nn2-c2ccc(S(N)(=O)=O)cc2)cc1 [Compound 40, 4-[5-(4-(3-azidopropyl)phenyl)-3-(trifluoromethyl)-1H-pyrazol-1-yl]benzenesulfonamide] | 18 | – | 34 |
| NS(=O)(=O)c1ccc(-n2nc(C(F)(F)F)cc2-c2ccc3c(c2)Cc2ccccc2-3)cc1 [Compound 57, 4-[5-(9H-fluoren-2-yl)-3-(trifluoromethyl)-1H-1-yl]benzenesulfonamide] | – | 16 | – |
| NS(=O)(=O)c1ccc(-n2nc(C(F)(F)F)cc2-c2c3ccccc3cc3ccccc23)cc1 [Compound 58, 4-[5-(9-anthracenyl)-3-(trifluoromethyl)-1H-1-yl]benzenesulfonamide] | 7 | 12 | – |
| O/N=C/c1ccc(-n2nc(C(F)(F)F)cc2-c2ccc3c(ccc4ccccc43)c2)cc1 [Compound 65, 4-5[-(2-Phenanthrenyl)-3-(trifluoromethyl)-1H-pyraxol-1-yl]-benzaldehyde oxime] | 14 | – | – |
| NS(=O)(=O)c1ccc(-n2nc(C(F)(F)F)cc2-c2ccc(CCBr)cc2)cc1 [Compound 37, 4-[5-(4-(2-bromoethyl)phenyl)-3-(trifluoromethyl)-1H-pyrazol-1-yl]benzenesulfonamide] | 18 | – | 42 |
| NS(=O)(=O)c1ccc(-n2nc(C(F)(F)F)cc2-c2ccc(-c3ccc(CBr)cc3)cc2)cc1 [Compound 52, 4-[5-(4′-bromomethyl[1,1′-biphenyl]-4-yl)-3-(trifluoromethyl)-1H-1-yl]benzenesulfonamide] | 11 | 20 | – |
| NS(=O)(=O)c1ccc(-n2nc(C(F)(F)F)cc2-c2ccc(-c3cccc(Cl)c3Cl)cc2)cc1 [Compound 48, 4-[5-(2′,3′-dichloro[1,1′-biphenyl]-4-yl)-3-(trifluoromethyl)-1H-pyrazol-1-yl]benzenesulfonamide] | 10 | 23 | – |
| N#Cc1ccc(-n2nc(C(F)(F)F)cc2-c2ccc3c(ccc4ccccc43)c2)cc1 [Compound 62, 4-[5-(2-Phenanthrenyl)-3-(trifluoromethyl)-1H-pyrazol-1-yl]-benzonitrile] | 30 | 45 | – |
| CC(C)(C)c1ccc(-c2ccc(-c3cc(C(F)(F)F)nn3-c3ccc(S(N)(=O)=O)cc3)cc2)cc1 [Compound 55, 4-[5-(4′-tert-buty[1,1′-biphenyl]-4-yl)-3-(trifluoromethyl)-1H-1-yl]benzenesulfonamide] | 15 | 32 | – |
| CCCCc1ccc(-c2cc(C(F)(F)F)nn2-c2ccc(S(N)(=O)=O)cc2)cc1 [Compound 41, 4-[5-(4-butylphenyl)-3-(trifluoromethyl)-1H-pyrazol-1-yl]benzenesulfonamide] | 9 | – | 20 |
| NS(=O)(=O)c1ccc(-n2nc(C(F)(F)F)cc2-c2ccc(CCCBr)cc2)cc1 [Compound 38, 4-[5-(4-(3-bromopropyl)phenyl)-3-(trifluoromethyl)-1H-pyrazol-1-yl]benzenesulfonamide] | 17 | – | 38 |
| NS(=O)(=O)c1ccc(-n2nc(C(F)(F)F)cc2-c2cc3ccccc3c3ccccc23)cc1 [Compound 60, 4-[5-(9-phenanthrenyl)-3-(trifluoromethyl)-1H-1-yl]benzenesulfonamide] | 23 | – | 42 |
| [N-]=[N+]=NCCc1ccc(-c2cc(C(F)(F)F)nn2-c2ccc(S(N)(=O)=O)cc2)cc1 [Compound 39, 4-[5-(4-(2-azidoethyl)phenyl)-3-(trifluoromethyl)-1H-pyrazol-1-yl]benzenesulfonamide] | 17 | – | 32 |
| Cc1ccc(-c2ccc(-c3cc(C(F)(F)F)nn3-c3ccc(S(N)(=O)=O)cc3)cc2)cc1 [Compound 50, 4-[5-(4′-methyl[1,1′-biphenyl]4-yl)-3-(trifluoromethyl)-1H-1-yl]benzenesulfonamide] | 8 | – | – |
| NS(=O)(=O)c1ccc(-n2nc(C(F)(F)F)cc2-c2ccc(-c3ccc(Cl)cc3)cc2)cc1 [Compound 46, 4-[5-(4′-chloro[1,1′-biphenyl]-4-yl)-3-(trifluoromethyl)-1H-pyrazol-1-yl]benzenesulfonamide] | 9 | – | 22 |
| NN=Cc1ccc(-n2nc(C(F)(F)F)cc2-c2ccc3c(ccc4ccccc43)c2)cc1 [Compound 66, 4-[5-(2-Phenanthrenyl)-3-(trifluoromethyl)-1H-pyrazol-1-yl]-benzaldehyde hydrazone] | 10 | 16 | – |
| N=C(NO)c1ccc(-n2nc(C(F)(F)F)cc2-c2ccc3c(ccc4ccccc43)c2)cc1 [Compound 63, 4-[5-(2-Phenanthrenyl)-3-(trifluoromethyl)-1H-pyrazol-1-yl]-N-hydroxybenzamidine] | 25 | – | 40 |
| NS(=O)(=O)c1ccc(-n2nc(C(F)(F)F)cc2-c2ccc(-c3cc(Cl)c(Cl)cc3Cl)cc2)cc1 [Compound 49, 4-[5-(2′,4′,5′-trichloro[1,1′-biphenyl]-4-yl)-3(trifluoromethyl)-1H-pyrazol-1-yl]benzenesulfonamide] | 5 | – | 9 |
| NS(=O)(=O)c1ccc(-n2nc(C(F)(F)F)cc2-c2c[nH]c3ccccc23)cc1 [Compound 44, 4-[5-(3-indolyl)-3(trifluoromethyl)-1H-pyrazol-1-yl]benzenesulfonamide] | 31 | – | 65 |
| Cc1ccc(-c2cc(C(F)(F)F)nn2-c2ccc(S(N)(=O)=O)cc2)cc1 [Comparative Compound, 4-[5-(4-methylphenyl)-3-(trifluoromethyl)-1H-pyrazol-1-yl]benzenesulfonamide, reference compound] | 30 | 48 | – |
| NC(Cc1ccc(-n2nc(C(F)(F)F)cc2-c2ccc3c(ccc4ccccc43)c2)cc1)=NO [Compound 68, 2-{4-[5-(2-Phenanthrenyl)-3-(trifluoromethyl)-1H-pyrazol-1-y]-phenyl}-N-hydroxy-acetamidine] | 8 | – | – |
| NS(=O)(=O)c1ccc(-n2nc(C(F)(F)F)cc2-c2ccc(-c3cc(Cl)cc(Cl)c3)cc2)cc1 [Compound 47, 4-[5-(3′,5′-dichloro[1,1′-biphenyl]-4-yl)-3-(trifluoromethyl)-1H-pyrazol-1-yl]benzenesulfonamide] | 10 | – | 18 |
| CC(C)(C)c1ccc(-c2cc(C(F)(F)F)nn2-c2ccc(S(N)(=O)=O)cc2)cc1 [Compound 42, 4-[5-(4-t-butylphenyl)-3-(trifluoromethyl)-1H-pyrazol-1-yl]benzenesulfonamide] | 18 | – | 34 |
| NS(=O)(=O)c1ccc(-n2nc(C(F)(F)F)cc2-c2ccc(Cc3ccccc3)cc2)cc1 [Compound 56, 4-[5-(4-(phenylmethyl)phenyl)-3-(trifluoromethyl)-1H-1-yl]benzenesulfonamide] | 8 | – | – |
| NC(=O)Nc1ccc(-n2nc(C(F)(F)F)cc2-c2ccc3c(ccc4ccccc43)c2)cc1 [Compound 72, 4-[5-(2-Phenanthrenyl)-3-(trifluoromethyl)-1H-pyrazol-1-yl]phenyl urea] | 24 | 40 | – |
| CCCCc1ccc(-c2ccc(-c3cc(C(F)(F)F)nn3-c3ccc(S(N)(=O)=O)cc3)cc2)cc1 [Compound 54, 4-[5-(4′-butyl[1,1′-biphenyl]-4-yl)-3-(trifluoromethyl)-1H-1-yl]benzenesulfonamide] | 15 | 32 | – |
| N#CCc1ccc(-n2nc(C(F)(F)F)cc2-c2ccc3c(ccc4ccccc43)c2)cc1 [Compound 67, {4-[5-(2-Phenanthrenyl)-3-(trifluoromethyl)-1H-pyrazol-1-yl]-phenyl}-acetonitrile] | 25 | 42 | – |
| Cc1cc(C)cc(-c2ccc(-c3cc(C(F)(F)F)nn3-c3ccc(S(N)(=O)=O)cc3)cc2)c1 [Compound 53, 4-[5-(3′,5′-dimethyl[1,1;-biphenyl]-4-yl)-3-(trifluoromethyl)-1H-1-yl]benzenesulfonamide] | – | 17 | – |
| NS(=O)(=O)c1ccc(-n2nc(C(F)(F)F)cc2-c2ccc(-c3ccccc3)cc2)cc1 [Compound 45] | 11 | 21 | – |
